The test system of the experiment is HCT-116. Put plainly: Cytotoxicity against human HCT116 cells after 72 hrs by MTS/PMS bioreduction assay. It is filed as functional, cell-based. Conditions: HCT-116, 72 h.

Regarding `CN[C@@H]1CC[C@]2(C)[C@H]3CC[C@]4(C)[C@@H]([C@H](C)CC5NCCC5C(C)C)CC[C@H]4C3=CC[C@H]2[C@H]1OC(C)=O` (some centres undefined), half-maximal inhibition (IC50) was put at 1.4 µM.
As for `CC(C)=C1CCN2[C@@H]1C[C@@H](C)[C@H]1[C@@H]2C[C@H]2C3=CC[C@H]4C[C@H](N(C)C)CC[C@]4(C)[C@H]3CC[C@]12C` [PLAKINAMINE I], the midpoint of inhibition, the IC50, lay at 10.6 µM.
Consider `CC(C)C1CCN(C)C1C[C@@H](C)[C@H]1CC[C@H]2C3=CC[C@H]4[C@H](N)C=CC[C@]4(C)[C@H]3CC[C@]12C` (some centres undefined) [PLAKINAMINE J], for which the IC50 (usually the concentration needed to halve the response being measured) turned out to be 6.1 µM.
The same measure for `CN[C@@H]1CC[C@]2(C)[C@H]3CC[C@]4(C)[C@@H]([C@H](C)CC5NCCC5=C(C)C)CC[C@H]4C3=CC[C@H]2[C@H]1OC(C)=O` (some centres undefined) [PLAKINAMINE K]: 1.4 µM.

Values taken from ChEMBL document CHEMBL1147257, “New cytotoxic steroidal alkaloids from the Philippine sponge Corticium niger” (J Nat Prod, 2003).
